Experimental data published in patent US9393236B2, “Use of 4-cyclopropylmethoxy-N-(3,5-dichloro-1-oxido-4-pyridin-4-yl)-5-(methoxy)pyridine-2-carboxamide in the treatment of cranial traumas” (SANOFI, priority 2007, dated 2016).

What was measured:
[1] = system: rats with parietal cranial trauma; test: CFR (Conditioned Freezing Response) test after a parietal cranial trauma; type: in vivo, rat (Sprague-Dawley); conditions: rat; 0.05 mg/kg i.v. 4 h after surgery (D0), then 0.1 mg/kg/day per os twice a day D1-D21; CFR measured D23/D24; p<0.001 vs traumatized animal given the carrier
Method: After general anaesthesia, rats (Sprague-Dawley, male, 150-200 g, Charles River) are placed in a stereotaxis frame. A craniotomy is performed at the level of the parietal cortex (AP: 3.5 mm; LAT: 7 mm and 3.5 mm below the cranial roof). A catheter connected to an HPLC pump is placed in contact with the dura mater and a pressure of 0.073 Kpsi is exerted.
The animals are treated intravenously 4 h after the surgery (D0) by administering a solution of 4-cyclopropylmethoxy-N-(3,5-dichloro-1-oxidopyridin-4-yl)-5-(methoxy)pyridine-2-carboxamide in the carrier (PEG200/physiological saline (NaCl 0.9%)), at the dose of 0.05 mg/kg.
Starting from D1 and up to D21 post-surgery, the animals are treated with a solution containing 4-cyclopropylmethoxy-N-(3,5-dichloro-1-oxidopyridin-4-yl)-5-(methoxy)pyridine-2-carboxamide in the carrier (methylcellulose (MC) (0.6%)+tween-80 (0.5%) in water) per os, twice a day, at the total daily dose of 0.1 mg/kg.
The deficiency in the CFR was measured at days D23 and D24 post-surgery.
At D23, the animal is placed in a box, where it receives an electric shock of 0.6 mA for 1.5 s.
At D24, the animal is again placed in the same box and the duration of immobility is measured for 3 minutes.

ferret = test: Evaluation of the emetic effects in the ferret; type: in vivo
Method: The emetic capacity of 4-cyclopropylmethoxy-N-(3,5-dichloro-1-oxidopyridin-4-yl)-5-(methoxy)pyridine-2-carboxamide was evaluated in the ferret. Two groups of ferrets were used, the first receiving the carrier (PEG200) and the second receiving 4-cyclopropyl methoxy-N-(3,5-dichloro-1-oxidopyridin-4-yl)-5-(methoxy)pyridine-2-carboxamide in solution in the carrier (PEG 200), by oral gavage. The animals were observed continually for the 2 hours following the administration, and then every hour up to 6 hours after the administration. The clinical signs (in particular retching and vomiting) were noted.
The emetic capacity of (R)-(−)-rolipram was evaluated in the ferrets. Two groups of ferrets were used, the first being given the carrier (PEG200) and the second being given the (((4R)-4-[3-(cyclopentyloxy)-4-methoxyphenyl]pyrrolidine-2-one)) in solution in the carrier (PEG 200), by oral gavage, at doses of 0.05 mg/kg and of 0.1 mg/kg. The animals were observed continually for the 2 hours following administration, and then once an hour up to 6 hours after the administration. The clinical signs were noted.

[2] = 0.1 mg/kg by oral gavage in PEG200, observed up to 6 hours

Structure (SMILES)	inhibition of the deficiency (immobility time in CFR) induced by a cranial trauma [1]	emetic effects (retching and vomiting) (ferret; [2])	emetic effects (retching and vomiting) (ferret; 0.05 mg/kg by oral gavage in PEG200, observed up to 6 hours)
COc1cnc(C(=O)Nc2c(Cl)c[n+]([O-])cc2Cl)cc1OCC1CC1 [4-Cyclopropylmethoxy-N-(3,5-dichloro-1-oxidopyridin-4-yl)-5-(methoxy)pyridine-2-carboxamide]	100%	induces no retching or vomiting	
COc1ccc([C@@H]2CNC(=O)C2)cc1OC1CCCC1 [(R)-(−)-rolipram, (4R)-4-[3-(cyclopentyloxy)-4-methoxyphenyl]pyrrolidine-2-one]		induces vomiting	induces vomiting
